Measurements: patent US7151105B2, “Inhibitors of Hepatitis C virus RNA-dependent RNA polymerase, and compositions and treatments using the same” (Agouron Pharmaceuticals, Inc., priority 2004, dated 2006)

Biological target: T1, Recombinant HCV polymerase (Hepatitis C virus genotype 1b, UniProt P26663)
T1 construct: Recombinant HCV polymerase was tested for its ability to perform primer/template-directed transcription
Assay: biochemical
Details: inhibition of polymerase-directed transcription; 30 min at 30° C; 30 nM enzyme; cpm data in triplicate
Experimental: The compounds described herein were tested for activity with HCV polymerase. Recombinant HCV polymerase was tested for its ability to perform primer/template-directed transcription in assays that contained 30 mM tris-HCl pH 7.2, 10 mM MgCl2, 20 mM NaCl, 1 mM Dithiothreitol (DTT), 0.05% Tween-20, 1% glycerol, 5 pmoles biotin-dG12 (primer), 0.5 pmoles poly(rC)300 (template), 1 μM GTP, 0.1–0.3 uCi α-^32P-GTP, and 2.5 pmoles (0.15 μg) HCV polymerase protein in a final volume of 75 μL. Reactions were initiated by addition of enzyme and incubated 30 minutes at 30° C. Reactions were stopped by addition of 33 mM EDTA, and polynucleotide products were collected by filtration through Diethylaminoethyl (DE) Filtermat papers (Wallac). Unincorporated triphosphate was removed by washing the filters with 5% dibasic sodium phosphate. The filters were counted in a Packard Tri-Lux Microbeta scintillation counter (Packard Bioscience, Meriden, Conn.). Compounds to be tested were added at various concentrations, e.g., 1 μm to 50 μm, from stocks in 10% DMSO-water (final DMSO is 1% in reaction).
IC50 values were estimated from the primary cpm data (collected in triplicate) using the formula: cpm (I)=cpm (no inhibitor)(1−([I]/([I]+IC50))). […] A percent inhibition value is expressed for a compound where it was impractical to calculate an IC50 value with available data.

T1 sequence (P26663 2420-3010): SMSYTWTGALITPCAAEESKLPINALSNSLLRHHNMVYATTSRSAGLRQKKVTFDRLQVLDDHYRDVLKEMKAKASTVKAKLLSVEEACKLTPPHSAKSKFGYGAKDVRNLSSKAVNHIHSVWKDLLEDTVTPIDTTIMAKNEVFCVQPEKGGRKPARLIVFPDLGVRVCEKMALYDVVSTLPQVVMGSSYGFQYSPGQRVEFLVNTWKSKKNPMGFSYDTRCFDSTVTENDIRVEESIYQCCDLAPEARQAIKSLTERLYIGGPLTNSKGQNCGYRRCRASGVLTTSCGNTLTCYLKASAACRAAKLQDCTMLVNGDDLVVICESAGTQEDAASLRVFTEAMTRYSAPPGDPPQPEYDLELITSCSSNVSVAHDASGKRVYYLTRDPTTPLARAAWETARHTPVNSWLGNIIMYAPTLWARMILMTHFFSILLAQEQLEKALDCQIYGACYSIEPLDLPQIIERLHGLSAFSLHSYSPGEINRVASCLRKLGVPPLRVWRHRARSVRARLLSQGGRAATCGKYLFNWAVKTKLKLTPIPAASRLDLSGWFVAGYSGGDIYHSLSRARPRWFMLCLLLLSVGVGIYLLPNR

Row | Compound | IC50
1 | CCC(C#N)(CC)c1ccc(CCC2(C3CCCC3)CC(O)=C(Cc3nc4nc(C)cc(C)n4n3)C(=O)O2)cc1C(F)(F)F (single isomer, unassigned) [A(155), 2-[4-(2-{2-Cyclopentyl-5-[(5,7-dimethyl[1,2,4]triazolo[1,5-a]pyrimidin-2-yl)methyl]-4-hydroxy-6-oxo-3,6-dihydro-2H-pyran-2-yl}ethyl)-2-(trifluoromethyl)phenyl]-2-ethylbutanenitrile] | 54 nM
2 | CCc1cc(CCC2(C3CCCC3)CC(O)=C(Cc3nc4nc(C)cc(C)n4n3)C(=O)O2)ccc1CN1CCOCC1 (single isomer, unassigned) [A(156), 6-Cyclopentyl-3-[(5,7-dimethyl[1,2,4]triazolo[1,5-a]pyrimidin-2-yl)methyl]-6-{2-[3-ethyl-4-(morpholin-4-ylmethyl)phenyl]ethyl}-4-hydroxy-5,6-dihydro-2H-pyran-2-one] | 5 nM
3 | CCc1cc(CCC2(C3CCCC3)CC(O)=C(Cc3nc4nc(C)cc(C)n4n3)C(=O)O2)ccc1CN1CCOCC1 (single isomer, unassigned) [A(157), 6-Cyclopentyl-3-[(5,7-dimethyl[1,2,4]triazolo[1,5-a]pyrimidin-2-yl)methyl]-{2-[3-ethyl-4-(morpholin-4-ylmethyl)phenyl]ethyl}-4-hydroxy-5,6-dihydro-2H-pyran-2-one] | 10 nM
4 | Cc1cc(C)n2nc(CC3=C(O)CC(CCc4cc(CC(F)(F)F)nc(CC(F)(F)F)c4)(C4CCCC4)OC3=O)nc2n1 (single isomer, unassigned; enantiomer 1) [A(10), Enantiomer 1 of 6-{2-[2,6-Bis(2,2,2-trifluoroethyl)pyridin-4-yl]ethyl}-6-cyclopentyl-3-[(5,7-dimethyl[1,2,4]triazolo[1,5-a]pyrimidin-2-yl)methyl]-4-hydroxy-5,6-dihydro-2H-pyran-2-one] | 3 nM
5 | CCc1cc(CCC2(C3CCCC3)CC(O)=C(Cc3nc4nc(C)cc(C)n4n3)C(=O)O2)c2c(c1O)CCO2 (single isomer, unassigned; enantiomer 1) [A(12), Enantiomer 1 of 6-Cyclopentyl-3-[(5,7-dimethyl[1,2,4]triazolo[1,5-a]pyrimidin-2-yl)methyl]-6-[2-(5-ethyl-4-hydroxy-2,3-dihydro-1-benzofuran-7-yl)ethyl]-4-hydroxy-5,6-dihydro-2H-pyran-2-one] | 2 nM
6 | CCc1cc(CCC2(C3CCCC3)CC(O)=C(Cc3nc4nc(C)cc(C)n4n3)C(=O)O2)ccc1CO (single isomer, unassigned; enantiomer 1) [A(114), Enantiomer 1 of 6-cyclopentyl-3-[(5,7-dimethyl[1,2,4]triazolo[1,5-a]pyrimidin-2-yl)methyl]-6-{2-[3-ethyl-4-(hydroxymethyl)phenyl]ethyl}4-hydroxy-5,6dihydro-2H-pyran-2-one] | 5 nM
7 | CCc1cc(CCC2(C3CCCC3)CC(O)=C(Cc3nc4nc(C)cc(C)n4n3)C(=O)O2)ccc1CC#N (single isomer, unassigned; enantiomer 1) [A(116), Enantiomer 1 of [4-(2-{2-Cyclopentyl-5-[(5,7-dimethyl[1,2,4]triazolo[1,5-a]pyrimidin-2-yl)methyl]-4-hydroxy-6-oxo-3,6dihydro-2H-pyran-2-yl}ethyl)-2-ethylphenyl]acetonitrile] | 5 nM
8 | CCc1cc(CCC2(C3CCCC3)CC(O)=C(Cc3nc4nc(C)cc(C)n4n3)C(=O)O2)ccc1CNS(C)(=O)=O (single isomer, unassigned; enantiomer 1) [A(129), Enantiomer 1 of N-[4-(2-{2-cyclopentyl-5-[(5,7-dimethyl[1,2,4]triazolo[1,5-a]pyrimidin-2-yl)methyl]-4-hydroxy-6-oxo-3,6-dihydro-2H-pyran-2-yl}ethyl)-2-ethylbenzyl]methanesulfonamide] | 4 nM
9 | CCc1cc(CCC2(C3CCCC3)CC(O)=C(Cc3nc4nc(C)cc(C)n4n3)C(=O)O2)ccc1CNC(C)=O (single isomer, unassigned; enantiomer 1) [A(132), Enantiomer 1 of N-[4-(2-[2-cyclopentyl-5-[(5,7-dimethyl[1,2,4]triazolo[1,5-a]pyrimidin-2-yl)methyl]-4-hydroxy-6-oxo-3,6-dihydro-2H-pyran-2-yl}ethyl)-2-ethylbenzyl]acetamide] | 35 nM
10 | CCc1cc(CCC2(C3CCCC3)CC(O)=C(Cc3nc4nc(C)cc(C)n4n3)C(=O)O2)ccc1-c1ncco1 (single isomer, unassigned; enantiomer 1) [A(138), Enantiomer 1 of 6-Cyclopentyl-3-[(5,7-dimethyl[1,2,4]triazolo[1,5-a]pyrimidin-2-yl)methyl]-6-{2-[3-ethyl-4-(1,3-oxazol-2-yl)phenyl]ethyl}-4-hydroxy-5,6-dihydro-2H-pyran-2-one] | 10 nM
11 | Cc1cc(C)n2nc(CC3=C(O)CC(CCc4cc(CC(F)(F)F)nc(CC(F)(F)F)c4)(C4CCCC4)OC3=O)nc2n1 (single isomer, unassigned; enantiomer 2) [A(11), Enantiomer 2 of 6-{2-[2,6-Bis(2,2,2-trifluoroethyl)pyridin-4-yl]ethyl}-6-cyclopentyl-3-[(5,7-dimethyl[1,2,4]triazolo[1,5-a]pyrimidin-2-yl)methyl]-4-hydroxy-5,6-dihydro-2H-pyran-2-one] | 8 nM
12 | CCc1cc(CCC2(C3CCCC3)CC(O)=C(Cc3nc4nc(C)cc(C)n4n3)C(=O)O2)c2c(c1O)CCO2 (single isomer, unassigned; enantiomer 2) [A(13), Enantiomer 2 of 6-Cyclopentyl-3-[(5,7-dimethyl[1,2,4]triazolo[1,5-a]pyrimidin-2-yl)methyl]-6-[2-(5-ethyl-4-hydroxy-2,3-dihydro-1-benzofuran-7-yl)ethyl]-4-hydroxy-5,6dihydro-2H-pyran-2-one] | 1 nM
13 | CCc1cc(CCC2(C3CCCC3)CC(O)=C(Cc3nc4nc(C)cc(C)n4n3)C(=O)O2)ccc1CO (single isomer, unassigned; enantiomer 2) [A(115), Enantiomer 2 6-cyclopentyl-3-[(5,7-dimethyl[1,2,4]triazolo[1,5-a]pyrimidin-2-yl)methyl]-6-{2-[3-ethyl-4-(hydroxymethyl)phenyl]ethyl}-4-hydroxy-5,6-dihydro-2H-pyran-2-one] | 6 nM
14 | CCc1cc(CCC2(C3CCCC3)CC(O)=C(Cc3nc4nc(C)cc(C)n4n3)C(=O)O2)ccc1CC#N (single isomer, unassigned; enantiomer 2) [A(117), Enantiomer 2 of [4(2-{2-Cyclopentyl-5[(5,7-dimethyl[1,2,4]triazolo[1,5-a]pyrimidin-2-yl)methyl]-4-hydroxy-6-oxo-3,6dihydro-2H-pyran-2-yl}ethyl)-2-ethylphenyl]acetonitrile] | 5 nM
15 | CCc1cc(CCC2(C3CCCC3)CC(O)=C(Cc3nc4nc(C)cc(C)n4n3)C(=O)O2)ccc1CNS(C)(=O)=O (single isomer, unassigned; enantiomer 2) [A(130), Enantiomer 2 of N-[4-(2-{2-cyclopentyl-5-[(5,7-dimethyl[1,2,4]triazolo[1,5-a]pyrimidin-2-yl)methyl]-4-hydroxy-6-oxo-3,6-dihydro-2H-pyran-2-yl}ethyl)-2-ethylbenzyl]methanesulfonamide] | 3 nM
16 | CCc1cc(CCC2(C3CCCC3)CC(O)=C(Cc3nc4nc(C)cc(C)n4n3)C(=O)O2)ccc1CNC(C)=O (single isomer, unassigned; enantiomer 2) [A(133), Enantiomer 2 of N-[4-(2-{2-cyclopentyl-5-[(5,7-dimethyl[1,2,4]triazolo[1,5-a]pyrimidin-2-yl)methyl]-4-hydroxy-6-oxo-3,6-dihydro-2H-pyran-2-ylethyl)-2-ethylbenzyl]acetamide] | 5 nM
17 | CCc1cc(CCC2(C3CCCC3)CC(O)=C(Cc3nc4nc(C)cc(C)n4n3)C(=O)O2)ccc1-c1ncco1 (single isomer, unassigned; enantiomer 2) [A(139), Enantiomer 2 of 6-Cyclopentyl-3-[(5,7-dimethyl[1,2,4]triazolo[1,5-a]pyrimidin-2-yl)methyl]-6-{2-[3-ethyl-4-(1,3-oxazol-2-yl)phenyl]ethyl}-4-hydroxy-5,6-dihydro-2H-pyran-2-one] | 4 nM
18 | CCCOc1cc(O)c(CC)cc1CCC1(C2CCCC2)CC(O)=C(Cc2nc3nc(C)cc(C)n3n2)C(=O)O1 (centres unmarked) [A(1), 6Cyclopentyl-3[(5,7-dimethyl[1,2,4]triazolo[1,5-a]pyrimidin-2-yl)methyl]-6-[2-(5-ethyl-4-hydroxy-2-propoxyphenyl)ethyl]-4-hydroxy-5,6dihydro-2H-pyran-2-one] | 3 nM
19 | CCc1cc(CCC2(C3CCCC3)CC(=O)CC(=O)O2)c(OC)cn1 (centres unmarked) [A(2), 6–Cyclopentyl-6-[2-(2-ethyl-5-methoxypyridin-4-yl)ethyl]dihydro-2H-pyran-2,4(3H)-dione] | 620 nM
20 | CCc1cc(CCC2(C3CCCC3)CC(O)=C(Cc3nc4nc(C)cc(C)n4n3)C(=O)O2)c(OC)cn1 (centres unmarked) [A(3), 6-Cyclopentyl-3-[(5,7-dimethyl[1,2,4]triazolo[1,5-a]pyrimidin-2-yl)methyl]-6-[2-(2-ethyl-5-methoxypyridin-4-yl)ethyl]-4-hydroxy-5,6-dihydro-2H-pyran-2-one] | 1 nM
